# In PubChem BioAssay AID1745844 (Carcinogenic Potency Database (CPDB), 2022):
# Calls of active or inactive are those of the source. The rule behind the calls is not given here.
# Test system: rodent lifetime carcinogenesis bioassay, tumor incidence TD50
# Test: chronic cancer bioassays in animals – CPDB, compiled studies (AID 1745844)
compound,measurement,setting,value
CC(Cc1ccccc1)NN (stereo not drawn),carcinogen call,"mouse, strain Swiss albino, females, in drinking water, site: liver, lesion: hepatoma, dosed 119 weeks, study length 127 weeks",negative (inactive)
same,carcinogen call,"mouse, strain Swiss albino, females, in drinking water, site: lung, lesion: one or several types, types not named, dosed 119 weeks, study length 127 weeks",negative (inactive)
same,carcinogen call,"mouse, strain Swiss albino, males, in drinking water, site: liver, lesion: hepatoma, dosed 100 weeks, study length 112 weeks",negative (inactive)
same,carcinogen call,"mouse, strain Swiss albino, males, in drinking water, site: lung, lesion: one or several types, types not named, dosed 100 weeks, study length 112 weeks",negative (inactive)
Cc1ccc2c(-c3cccc(O)c3)nc(=O)n(C(C)C)c2c1,carcinogen call,"mouse, strain Charles River CD1, females, in feed, site: liver, lesion: hemangiosarcoma, dosed 86 weeks, study length 86 weeks",negative (inactive)
same,carcinogen call,"mouse, strain Charles River CD1, females, in feed, site: lung, lesion: alveolar/bronchiolar adenoma, dosed 86 weeks, study length 86 weeks",negative (inactive)
same,TD50,"mouse, strain Charles River CD1, females, in feed, site: lung, lesion: alveolar/bronchiolar carcinoma, dosed 86 weeks, study length 86 weeks",4600 mg/kg/day (inactive)
same,carcinogen call,"mouse, strain Charles River CD1, females, in feed, site: lung, lesion: hibernoma, malignant, dosed 86 weeks, study length 86 weeks",negative (inactive)
same,carcinogen call,"mouse, strain Charles River CD1, males, in feed, site: liver, lesion: hemangiosarcoma, dosed 86 weeks, study length 86 weeks",negative (inactive)
same,carcinogen call,"mouse, strain Charles River CD1, males, in feed, site: lung, lesion: alveolar/bronchiolar adenoma, dosed 86 weeks, study length 86 weeks",negative (inactive)
same,TD50,"mouse, strain Charles River CD1, males, in feed, site: lung, lesion: alveolar/bronchiolar carcinoma, dosed 86 weeks, study length 86 weeks",8400 mg/kg/day (inactive)
same,carcinogen call,"rat, strain Sandoz, females, in feed, site: liver, lesion: hepatocellular carcinoma, dosed 104 weeks, study length 104 weeks",negative (inactive)
same,TD50,"rat, strain Sandoz, females, in feed, site: liver, lesion: neoplastic nodule, dosed 104 weeks, study length 104 weeks",2220 mg/kg/day (inactive)
same,carcinogen call,"rat, strain Sandoz, females, in feed, site: mammary tissue, wider than the gland, lesion: fibroadenoma, dosed 104 weeks, study length 104 weeks",negative (inactive)
same,TD50,"rat, strain Sandoz, males, in feed, site: adrenal gland, lesion: malignant tumor, dosed 104 weeks, study length 104 weeks",113 mg/kg/day (inactive)
same,carcinogen call,"rat, strain Sandoz, males, in feed, site: liver, lesion: one or several types, types not named, dosed 104 weeks, study length 104 weeks",negative (inactive)
[N-]=[N+]=[N-],TD50,"rat, strain Charles River CD (Sprague-Dawley), females, in feed, site: mammary gland, lesion: one or several types, types not named, dosed 78 weeks, study length 104 weeks",3.01 mg/kg/day
same,TD50,"rat, strain Charles River CD (Sprague-Dawley), females, in feed, site: pituitary gland, lesion: chromophobe adenoma, dosed 78 weeks, study length 104 weeks",16.1 mg/kg/day (inactive)
same,carcinogen call,"rat, strain Charles River CD (Sprague-Dawley), males, in feed, site: pituitary gland, lesion: chromophobe adenoma, dosed 78 weeks, study length 104 weeks",negative (inactive)
same,TD50,"rat, strain Fischer 344, females, by gavage, site: any site (literature study), lesion: several types, types named in the paper, dosed 103 weeks, study length 104 weeks",19.1 mg/kg/day (inactive)
same,TD50,"rat, strain Fischer 344, males, by gavage, site: any site (literature study), lesion: several types, types named in the paper, dosed 103 weeks, study length 104 weeks",8.26 mg/kg/day
same,TD50,"rat, strain Fischer 344, males, by gavage, site: testis, lesion: interstitial-cell adenoma, bilateral + interstitial-cell adenoma, dosed 103 weeks, study length 104 weeks",3.79 mg/kg/day (inactive)
O=c1cc[nH]c(=S)[nH]1,TD50,"mouse, strain C3H (MTV+), females, in feed, site: liver, lesion: hepatoma, dosed 73 weeks, study length 73 weeks",63.3 mg/kg/day
same,TD50,"mouse, strain C3H (MTV+), males, in feed, site: liver, lesion: hepatoma, dosed 73 weeks, study length 73 weeks",48.6 mg/kg/day
same,carcinogen call,"mouse, strain TM, females, in feed, site: liver, lesion: hepatoma, dosed 73 weeks, study length 73 weeks",negative (inactive)
same,carcinogen call,"mouse, strain TM, males, in feed, site: liver, lesion: hepatoma, dosed 73 weeks, study length 73 weeks",negative (inactive)
same,TD50,"rat, strain Fischer 344, females, in feed, site: thyroid gland, lesion: malignant tumor, dosed 103 weeks, study length 103 weeks",22.9 mg/kg/day
same,TD50,"rat, strain Fischer 344, males, in feed, site: thyroid gland, lesion: malignant tumor, dosed 103 weeks, study length 103 weeks",8.05 mg/kg/day
